Tests used:
[1] = excess molar enthalpy (molar enthalpy of mixing); xn = mol fraction of the nth substance listed; settings: 298.15 K, 101 kPa, Liquid
[2] = xn = mol fraction of the nth substance listed; settings: 298.15 K, 101 kPa, Liquid

BrCCCCCCBr [1,6-dibromohexane] + COC=O
Settings | excess molar enthalpy [kcal/mol] | mass density [kg/m3]
[1], x2 = 0.099 | 0.0911 | –
[1], x2 = 0.2052 | 0.166 | –
[1], x2 = 0.3188 | 0.231 | –
[1], x2 = 0.4099 | 0.26 | –
[1], x2 = 0.4481 | 0.27 | –
[1], x2 = 0.5059 | 0.278 | –
[1], x2 = 0.5777 | 0.278 | –
[1], x2 = 0.6385 | 0.268 | –
[1], x2 = 0.69 | 0.252 | –
[1], x2 = 0.7201 | 0.241 | –
[1], x2 = 0.7507 | 0.227 | –
[1], x2 = 0.7946 | 0.203 | –
[1], x2 = 0.8411 | 0.169 | –
[1], x2 = 0.9115 | 0.108 | –
[1], x2 = 0.9775 | 0.0335 | –
[2], x2 = 0.0951 | – | 1574.69
[2], x2 = 0.1373 | – | 1561.81
[2], x2 = 0.18 | – | 1547.9
[2], x2 = 0.2331 | – | 1529.55
[2], x2 = 0.3709 | – | 1475.52
[2], x2 = 0.4924 | – | 1417.67
[2], x2 = 0.5984 | – | 1357.11
[2], x2 = 0.6952 | – | 1290.94
[2], x2 = 0.799 | – | 1204.62
[2], x2 = 0.8251 | – | 1179.95
[2], x2 = 0.9038 | – | 1095.21
[2], x2 = 0.9183 | – | 1078.3
[2], x2 = 0.9504 | – | 1037.23
[2], x2 = 0.9718 | – | 1007.96

BrCCCCBr [1,4-dibromobutane] + CCCC(=O)OC
Settings | excess molar enthalpy [kcal/mol] | mass density [kg/m3]
[1], x2 = 0.0662 | 0.0111 | –
[1], x2 = 0.1525 | 0.019 | –
[1], x2 = 0.2456 | 0.0232 | –
[1], x2 = 0.3392 | 0.0233 | –
[1], x2 = 0.4222 | 0.019 | –
[1], x2 = 0.4708 | 0.0156 | –
[1], x2 = 0.5515 | 0.00743 | –
[1], x2 = 0.6276 | 0.000621 | –
[1], x2 = 0.6882 | -0.00366 | –
[1], x2 = 0.7845 | -0.0054 | –
[1], x2 = 0.8702 | -0.00452 | –
[1], x2 = 0.9455 | -0.00256 | –
[2], x2 = 0.121 | – | 1710.83
[2], x2 = 0.1809 | – | 1656.55
[2], x2 = 0.2384 | – | 1604.18
[2], x2 = 0.2953 | – | 1552.31
[2], x2 = 0.3601 | – | 1492.93
[2], x2 = 0.4182 | – | 1439.44
[2], x2 = 0.4848 | – | 1377.96
[2], x2 = 0.5382 | – | 1328.46
[2], x2 = 0.5989 | – | 1272
[2], x2 = 0.653 | – | 1221.36
[2], x2 = 0.7699 | – | 1111.48
[2], x2 = 0.8252 | – | 1059.19
[2], x2 = 0.8804 | – | 1006.8

BrCCCCCCBr [1,6-dibromohexane] + CCC(=O)OC
Settings | excess molar enthalpy [kcal/mol] | mass density [kg/m3]
[1], x2 = 0.0951 | 0.0356 | –
[1], x2 = 0.1915 | 0.0572 | –
[1], x2 = 0.2814 | 0.0727 | –
[1], x2 = 0.3659 | 0.0818 | –
[1], x2 = 0.4423 | 0.0858 | –
[1], x2 = 0.5073 | 0.0845 | –
[1], x2 = 0.5644 | 0.0809 | –
[1], x2 = 0.6136 | 0.076 | –
[1], x2 = 0.6648 | 0.067 | –
[1], x2 = 0.7136 | 0.0588 | –
[1], x2 = 0.7663 | 0.0488 | –
[1], x2 = 0.817 | 0.0397 | –
[1], x2 = 0.8647 | 0.0308 | –
[1], x2 = 0.9137 | 0.0207 | –
[1], x2 = 0.9606 | 0.0103 | –
[2], x2 = 0.0903 | – | 1557.49
[2], x2 = 0.1731 | – | 1517.27
[2], x2 = 0.254 | – | 1475.55
[2], x2 = 0.3276 | – | 1435.11
[2], x2 = 0.3987 | – | 1393.7
[2], x2 = 0.4603 | – | 1355.72
[2], x2 = 0.5254 | – | 1313.37
[2], x2 = 0.5807 | – | 1275.39
[2], x2 = 0.6388 | – | 1233.34
[2], x2 = 0.695 | – | 1190.53
[2], x2 = 0.7429 | – | 1152.05
[2], x2 = 0.7914 | – | 1111.32
[2], x2 = 0.838 | – | 1070.17
[2], x2 = 0.8789 | – | 1032.36
[2], x2 = 0.9195 | – | 993.3
[2], x2 = 0.9621 | – | 950.1

BrCCBr [1,2-dibromoethane] + COC=O
Settings | excess molar enthalpy [kcal/mol] | mass density [kg/m3]
[1], x2 = 0.0726 | 0.0561 | –
[1], x2 = 0.1528 | 0.112 | –
[1], x2 = 0.2426 | 0.156 | –
[1], x2 = 0.3298 | 0.179 | –
[1], x2 = 0.4034 | 0.19 | –
[1], x2 = 0.4719 | 0.194 | –
[1], x2 = 0.5315 | 0.192 | –
[1], x2 = 0.5856 | 0.185 | –
[1], x2 = 0.6347 | 0.175 | –
[1], x2 = 0.6786 | 0.163 | –
[1], x2 = 0.7171 | 0.15 | –
[1], x2 = 0.7759 | 0.127 | –
[1], x2 = 0.8639 | 0.0849 | –
[1], x2 = 0.9405 | 0.041 | –
[2], x2 = 0.0941 | – | 2084.41
[2], x2 = 0.1513 | – | 2030.58
[2], x2 = 0.2019 | – | 1980.75
[2], x2 = 0.251 | – | 1931.96
[2], x2 = 0.2967 | – | 1881.94
[2], x2 = 0.3904 | – | 1784.54
[2], x2 = 0.4985 | – | 1662.03
[2], x2 = 0.5973 | – | 1543.27
[2], x2 = 0.7057 | – | 1404.1
[2], x2 = 0.7483 | – | 1346.2
[2], x2 = 0.7967 | – | 1278.68
[2], x2 = 0.8478 | – | 1205.01
[2], x2 = 0.8808 | – | 1155.98
[2], x2 = 0.9402 | – | 1064.28
